Data taken from patent US20240424113A1, “CONJUGATES COMPRISING ANTIFUNGALS AND HEAT SHOCK PROTEIN 90 (HSP90) INHIBITORS AND METHODS OF USE THEREOF” (Bright Angel Therapeutics Inc., priority 2021, published 2024).
Values after ≈ are worked out from the molar mass of the structure shown.

Columns and labels:
[1] = molecular target: Hsp90 Nuclear Binding Domain (NBD) (Candida albicans (strain SC5314 / ATCC MYA-2876) (Yeast), UniProt P46598); assay: Surface Plasmon Resonance (SPR) binding, C. albicans Hsp90 NBD; conditions: biotinylated Hsp90 NBD on streptavidin chip, 25° C., 1:1 binding model
How it was run: (§1)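 Biacore S200 at 25° C; AviTag-biotinylated recombinant Hsp90 NBD captured on streptavidin chip at 2000-2500 RU. Compound dilution series run in HBS-P pH 7.4 with 2% DMSO at 40 μL/min, 60 s association and 600 s dissociation. Sensorgrams fitted to a 1:1 binding model.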

[2] = system: CaCl2; assay: Antifungal sensitivity testing (broth microdilution MIC); format: cell-based; conditions: 96-well broth microdilution
How it was run: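 Broth microdilution MIC per a modified published protocol; compounds dissolved in DMSO, fluconazole in water; duplicates in at least two independent experiments. Fungicidal activity checked by spotting MIC-plate cultures onto YPD agar, read after 24 h at 30° C.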

[3] = system: HepG2 cells; assay: Mammalian cell toxicity (Cell Titer-Glo); format: cell-based
Method: Mammalian Cell Toxicity. HepG2 cells were seeded overnight at 500 cells/well in 384-well plate, then incubated with compounds (10-point concentration titration) for 48 h. Cell Titer-Glo® reagent ([…]) was added to each well and after 10-minute incubation at room temperature the luminescent signal was measured using an Envision plate reader (Perkin Elmer).

[4] = molecular target: Hsp90 Nuclear Binding Domain (NBD) (Aspergillus fumigatus, UniProt P40292); assay: Surface Plasmon Resonance (SPR) binding, A. fumigatus Hsp90 NBD; conditions: biotinylated Hsp90 NBD on streptavidin chip, 25° C., 1:1 binding model; NB undefined
How it was run: as §1

Sequence of Hsp90 Nuclear Binding Domain (NBD) (Candida albicans (strain SC5314 / ATCC MYA-2876) (Yeast), UniProt P46598) (P46598 1-218 limits assumed): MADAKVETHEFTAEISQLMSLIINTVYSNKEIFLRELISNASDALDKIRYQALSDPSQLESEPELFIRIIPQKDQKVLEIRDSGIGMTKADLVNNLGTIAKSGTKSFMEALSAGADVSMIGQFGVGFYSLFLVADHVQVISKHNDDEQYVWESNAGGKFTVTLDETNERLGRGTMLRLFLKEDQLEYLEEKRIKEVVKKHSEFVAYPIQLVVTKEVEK
Sequence of Hsp90 Nuclear Binding Domain (NBD) (Aspergillus fumigatus, UniProt P40292) (P40292 whole entry, looked up, the tested form may be a part): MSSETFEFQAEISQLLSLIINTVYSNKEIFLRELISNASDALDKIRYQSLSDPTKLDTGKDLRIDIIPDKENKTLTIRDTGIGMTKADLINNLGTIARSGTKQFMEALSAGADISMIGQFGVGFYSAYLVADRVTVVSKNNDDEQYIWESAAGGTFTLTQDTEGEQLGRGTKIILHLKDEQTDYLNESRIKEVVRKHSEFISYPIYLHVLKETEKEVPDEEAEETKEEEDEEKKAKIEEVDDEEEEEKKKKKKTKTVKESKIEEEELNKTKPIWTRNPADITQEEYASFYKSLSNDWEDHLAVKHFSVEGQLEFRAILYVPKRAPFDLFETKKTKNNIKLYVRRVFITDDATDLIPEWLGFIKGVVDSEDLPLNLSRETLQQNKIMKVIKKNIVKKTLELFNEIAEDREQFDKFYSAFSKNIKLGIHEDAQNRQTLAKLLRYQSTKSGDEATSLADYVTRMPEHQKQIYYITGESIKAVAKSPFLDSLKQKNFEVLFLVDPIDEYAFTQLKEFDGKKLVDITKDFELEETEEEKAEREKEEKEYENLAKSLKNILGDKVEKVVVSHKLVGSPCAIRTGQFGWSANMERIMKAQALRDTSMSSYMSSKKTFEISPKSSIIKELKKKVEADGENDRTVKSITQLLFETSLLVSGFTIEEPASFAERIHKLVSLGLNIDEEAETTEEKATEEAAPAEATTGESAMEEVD

SMILES | Kd [1] [nM] | MIC50 ([2]; Table 4) [µM] | MIC50 ([2]; Table 6) [µM] | HepG2 MIC50 ([3]; Table 5, 48 h incubation) [µM] | HepG2 MIC50 ([3]; Table 6, 48 h incubation) [µM] | Kd [4] [nM]
CC1(NC(=O)c2cc3c(nc(N)c(=O)n3-c3ccc4c(c3)N(c3ccccc3)CCO4)s2)CCN(CC(O)(Cn2cncn2)c2ccc(F)cc2F)CC1 (stereo not shown) [Compound I-31, 3-amino-N-(1-(2-(2,4-difluorophenyl)-2-hydroxy-3-(1H-1,2,4-triazol-1-yl)propyl)-4-methylpiperidin-4-yl)-2-oxo-1-(4-phenyl-3,4-dihydro-2H-benzo[b][1,4]oxazin-6-yl)-1,2-dihydrothieno[2,3-b]pyrazine-6-carboxamide] | 0.3 | 1 (≈ 0.754 µg/mL) | 1 (≈ 0.754 µg/mL) | 4.6 | 4.6 | 2.3
Nc1nc2sc(CN3CCC(NCC(O)(Cn4cncn4)c4ccc(F)cc4F)CC3)cc2n(-c2ccc3c(c2)N(c2ccccc2)CCO3)c1=O (stereo not shown) [Compound I-134, 3-amino-6-((4-((2-(2,4-difluorophenyl)-2-hydroxy-3-(1H-1,2,4-triazol-1-yl)propyl)amino)piperidin-1-yl)methyl)-1-(4-phenyl-3,4-dihydro-2H-benzo[b][1,4]oxazin-6-yl)thieno[2,3-b]pyrazin-2(1H)-one] | 665 | 3.13 (≈ 2.27 µg/mL) | 3.13 (≈ 2.27 µg/mL) | – | 15 | 1050
Nc1nc2sc(C(=O)N[C@@H]3CCN(CCC(O)(Cn4cncn4)c4ccc(F)cc4F)C3)cc2n(-c2ccc3c(c2)N(c2ccccc2)CCO3)c1=O (stereo partly drawn) [Compound I-36, 3-amino-N-((3R)-1-(3-(2,4-difluorophenyl)-3-hydroxy-4-(1H-1,2,4-triazol-1-yl)butyl)pyrrolidin-3-yl)-2-oxo-1-(4-phenyl-3,4-dihydro-2H-benzo[b][1,4]oxazin-6-yl)-1,2-dihydrothieno[2,3-b]pyrazine-6-carboxamide] | 2.1 | 8 (≈ 5.92 µg/mL) | 8 (≈ 5.92 µg/mL) | – | 1.9 | 3.7
Nc1nc2scc(C(=O)NC3CCN(CC(O)(Cn4cncn4)c4ccc(F)cc4F)CC3)c2n(-c2ccc3c(c2)N(c2ccccc2)CCO3)c1=O (stereo not shown) [Compound I-18, 3-amino-N-(1-(2-(2,4-difluorophenyl)-2-hydroxy-3-(1H-1,2,4-triazol-1-yl)propyl)piperidin-4-yl)-2-oxo-1-(4-phenyl-3,4-dihydro-2H-benzo[b][1,4]oxazin-6-yl)-1,2-dihydrothieno[2,3-b]pyrazine-7-carboxamide] | 459 | 20 (≈ 14.8 µg/mL) | 20 (≈ 14.8 µg/mL) | – | >50 | 741
Nc1nc2sc(C(=O)N[C@@H]3CCN(C[C@@](O)(Cn4cncn4)c4ccc(F)cc4F)C3)cc2n(-c2ccc3c(c2)N(c2ccccc2)CCO3)c1=O [Compound I-11, 3-amino-N-((R)-1-((R)-2-(2,4-difluorophenyl)-2-hydroxy-3-(1H-1,2,4-triazol-1-yl)propyl)pyrrolidin-3-yl)-2-oxo-1-(4-phenyl-3,4-dihydro-2H-benzo[b][1,4]oxazin-6-yl)-1,2-dihydrothieno[2,3-b]pyrazine-6-carboxamide] | 0.8 | 2.5 (≈ 1.81 µg/mL) | 2.5 (≈ 1.81 µg/mL) | – | 2.4 | 24.8
Nc1nc2sc(CNCC3CCN(C[C@@](O)(Cn4cncn4)c4ccc(F)cc4F)CC3)cc2n(-c2ccc3c(c2)N(c2ccccc2)CCO3)c1=O [Compound I-122, (R)-3-amino-6-((((1-(2-(2,4-difluorophenyl)-2-hydroxy-3-(1H-1,2,4-triazol-1-yl)propyl)piperidin-4-yl)methyl)amino)methyl)-1-(4-phenyl-3,4-dihydro-2H-benzo[b][1,4]oxazin-6-yl)thieno[2,3-b]pyrazin-2(1H)-one] | 1630 | 6.5 (≈ 4.81 µg/mL) | 6.5 (≈ 4.81 µg/mL) | – | 14.3 | 1900
Cc1ccc(-n2c(=O)c(N)nc3sc(C(=O)NC4CCN(CC(O)(Cn5cncn5)c5ccc(F)cc5F)CC4)cc32)cc1Oc1ccccc1 (stereo not shown) [Compound I-12, 3-amino-N-(1-(2-(2,4-difluorophenyl)-2-hydroxy-3-(1H-1,2,4-triazol-1-yl)propyl)piperidin-4-yl)-1-(4-methyl-3-phenoxyphenyl)-2-oxo-1,2-dihydrothieno[2,3-b]pyrazine-6-carboxamide] | 146 | 0.18 (≈ 0.128 µg/mL) | 0.18 (≈ 0.128 µg/mL) | >10 | >10 | 431
